In patent publication US20020081596A1, “Compositions and methods for the identification, assessment, prevention, and therapy of human cancers” (priority 2000, published 2002):

How the values were obtained:
[1] = test system: tumor; conditions: animal models; cited from earlier work
[2] = test system: TAXOL resistant cancer cell lines; experiment: Growth inhibition (GI50) by TAXOL, mean of nine resistant cell lines; type: cell-based, human; conditions: mean of the nine TAXOL resistant cell lines of Table B
Experimental: (§1) One group of nine cell lines was determined to be sensitive to TAXOL (Table C), the other group of nine cell lines was determined to be resistant to TAXOL (Table B). Sensitivity to TAXOL was based of known GI50 values for these cells, which for this study was defined as the concentration of TAXOL required to inhibit growth of the cell line by 50%. More precisely, the quantity used in the calculation is the potency measure −log{GI50}. Pooled RNA from TAXOL sensitive cancer cell lines was used as tester against driver RNA pooled from TAXOL resistant cancer cell lines. Pooled RNA from TAXOL resistant cancer cell lines was used as tester against driver RNA pooled from TAXOL sensitive cancer cell lines.

[3] = test system: TAXOL sensitive cancer cell lines; experiment: Growth inhibition (GI50) by TAXOL, mean of nine sensitive cell lines; type: cell-based, human; conditions: mean of the nine TAXOL sensitive cell lines of Table C
Experimental: as §1

[4] = test system: EKVX; conditions: non-small cell lung carcinoma, TAXOL resistant cell line; cited from earlier work
[5] = test system: HOP-92; conditions: HOP-92, non-small cell lung carcinoma, TAXOL resistant cell line; cited from earlier work
[6] = test system: HCT-15; conditions: HCT-15, colon, TAXOL resistant cell line; cited from earlier work
[7] = test system: MALME-3M; conditions: melanoma, TAXOL resistant cell line; cited from earlier work
[8] = test system: SK-MEL-28; conditions: SK-MEL-28, melanoma, TAXOL resistant cell line; cited from earlier work
[9] = test system: OVCAR-4; conditions: OVCAR-4, ovarian, TAXOL resistant cell line; cited from earlier work
[10] = test system: ACHN; conditions: renal, TAXOL resistant cell line; cited from earlier work
[11] = test system: MCF-7/AdrRes; conditions: breast, TAXOL resistant cell line; cited from earlier work
[12] = test system: T-47D; conditions: breast, TAXOL resistant cell line; cited from earlier work
[13] = test system: NCl-H460; conditions: NCl-H460, non-small cell lung carcinoma, TAXOL sensitive cell line; cited from earlier work
[14] = test system: NCl-H522; conditions: NCl-H522, non-small cell lung carcinoma, TAXOL sensitive cell line; cited from earlier work
[15] = test system: HT-29; conditions: HT-29, colon, TAXOL sensitive cell line; cited from earlier work
[16] = test system: SK-MEL-2; conditions: SK-MEL-2, melanoma, TAXOL sensitive cell line; cited from earlier work
[17] = test system: SK-MEL-5; conditions: SK-MEL-5, melanoma, TAXOL sensitive cell line; cited from earlier work
[18] = test system: OVCAR-3; conditions: OVCAR-3, ovarian, TAXOL sensitive cell line; cited from earlier work
[19] = test system: SN12C; conditions: renal, TAXOL sensitive cell line; cited from earlier work
[20] = test system: MCF-7; conditions: MCF-7, breast, TAXOL sensitive cell line; cited from earlier work
[21] = test system: MDA-MB-435; conditions: MDA-MB-435, breast, TAXOL sensitive cell line; cited from earlier work

Q: For CC(=O)O[C@@]12CO[C@@H]1C[C@H](O)[C@@]1(C)C(=O)[C@H](O)C3=C(C)[C@@H](OC(=O)[C@H](O)[C@@H](NC(=O)OC(C)(C)C)c4ccccc4)C[C@@](O)([C@@H](OC(=O)c4ccccc4)[C@H]21)C3(C)C [Taxotere, docetaxel], which anti-tumor activity [1] is on record?
A: good anti-tumor activity

Q: Which results are given for CC(=O)O[C@H]1C(=O)[C@@]2(C)[C@H]([C@H](OC(=O)c3ccccc3)[C@]3(O)C[C@H](OC(=O)[C@H](O)[C@@H](NC(=O)c4ccccc4)c4ccccc4)C(C)=C1C3(C)C)[C@]1(OC(C)=O)CO[C@@H]1C[C@@H]2O [TAXOL]?
A: Log Gl 50 for TAXOL (Mean) [2]: −6.5; Log GI 50 for TAXOL (Mean) [3]: −8.5; Log Gl 50 for TAXOL [4]: −6.6; Log Gl 50 for TAXOL [5]: −7.2; Log Gl 50 for TAXOL [6]: −6.7; Log Gl 50 for TAXOL [7]: −6.8; Log Gl 50 for TAXOL [8]: −7.1; Log Gl 50 for TAXOL [9]: −6.3; Log Gl 50 for TAXOL [10]: −5.8; Log Gl 50 for TAXOL [11]: −5.5; Log Gl 50 for TAXOL [12]: −6.9; Log GI 50 for TAXOL [13]: −8.5; Log GI 50 for TAXOL [14]: −8.5; Log GI 50 for TAXOL [15]: −8.6; Log GI 50 for TAXOL [16]: −8.3; Log GI 50 for TAXOL [17]: −8.4; Log GI 50 for TAXOL [18]: −8.5; Log GI 50 for TAXOL [19]: −8.5; Log GI 50 for TAXOL [20]: −8.5; Log GI 50 for TAXOL [21]: −8.6
